From ChEMBL document CHEMBL4507276 (2021)

Legend:
[1] = biological target: 5-hydroxytryptamine receptor 6 (Homo sapiens) (UniProt P50406); conditions: Compound concentration 10.0 uM
[2] = biological target: Atypical kinase COQ8B, mitochondrial (Homo sapiens) (UniProt Q96D53); conditions: Compound concentration 1000.0 nM
[3] = biological target: T1, MAP/microtubule affinity-regulating kinase 4 (Homo sapiens) (UniProt Q96L34); test: MARK4 Invitrogen selectivity data (BI); conditions: Compound concentration 3.0 uM
T1 sequence (whole entry): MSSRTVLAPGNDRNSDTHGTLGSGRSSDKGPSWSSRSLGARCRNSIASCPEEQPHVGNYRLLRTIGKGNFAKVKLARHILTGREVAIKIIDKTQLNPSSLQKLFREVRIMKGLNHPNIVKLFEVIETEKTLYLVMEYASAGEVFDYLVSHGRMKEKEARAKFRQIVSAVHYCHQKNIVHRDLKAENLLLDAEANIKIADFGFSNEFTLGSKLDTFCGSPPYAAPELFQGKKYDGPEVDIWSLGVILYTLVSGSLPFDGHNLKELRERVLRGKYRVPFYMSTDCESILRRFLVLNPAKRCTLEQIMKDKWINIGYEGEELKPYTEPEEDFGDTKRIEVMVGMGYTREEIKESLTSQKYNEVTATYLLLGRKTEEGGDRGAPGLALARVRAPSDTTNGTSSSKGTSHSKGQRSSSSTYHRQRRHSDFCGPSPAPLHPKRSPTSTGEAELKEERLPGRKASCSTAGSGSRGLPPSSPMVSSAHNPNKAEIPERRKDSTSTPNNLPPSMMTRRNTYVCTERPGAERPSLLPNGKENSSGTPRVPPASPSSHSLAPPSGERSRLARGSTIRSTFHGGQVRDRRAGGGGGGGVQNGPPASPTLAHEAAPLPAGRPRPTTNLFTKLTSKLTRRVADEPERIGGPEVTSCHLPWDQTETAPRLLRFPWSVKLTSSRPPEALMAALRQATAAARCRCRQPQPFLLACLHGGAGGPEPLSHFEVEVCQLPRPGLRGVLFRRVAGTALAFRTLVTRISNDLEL

[4] = biological target: T2, Mitogen-activated protein kinase kinase kinase 5 (Homo sapiens) (UniProt Q99683); test: MAP3K5 Invitrogen selectivity data (BI); conditions: Compound concentration 3.0 uM
T2 sequence (whole entry): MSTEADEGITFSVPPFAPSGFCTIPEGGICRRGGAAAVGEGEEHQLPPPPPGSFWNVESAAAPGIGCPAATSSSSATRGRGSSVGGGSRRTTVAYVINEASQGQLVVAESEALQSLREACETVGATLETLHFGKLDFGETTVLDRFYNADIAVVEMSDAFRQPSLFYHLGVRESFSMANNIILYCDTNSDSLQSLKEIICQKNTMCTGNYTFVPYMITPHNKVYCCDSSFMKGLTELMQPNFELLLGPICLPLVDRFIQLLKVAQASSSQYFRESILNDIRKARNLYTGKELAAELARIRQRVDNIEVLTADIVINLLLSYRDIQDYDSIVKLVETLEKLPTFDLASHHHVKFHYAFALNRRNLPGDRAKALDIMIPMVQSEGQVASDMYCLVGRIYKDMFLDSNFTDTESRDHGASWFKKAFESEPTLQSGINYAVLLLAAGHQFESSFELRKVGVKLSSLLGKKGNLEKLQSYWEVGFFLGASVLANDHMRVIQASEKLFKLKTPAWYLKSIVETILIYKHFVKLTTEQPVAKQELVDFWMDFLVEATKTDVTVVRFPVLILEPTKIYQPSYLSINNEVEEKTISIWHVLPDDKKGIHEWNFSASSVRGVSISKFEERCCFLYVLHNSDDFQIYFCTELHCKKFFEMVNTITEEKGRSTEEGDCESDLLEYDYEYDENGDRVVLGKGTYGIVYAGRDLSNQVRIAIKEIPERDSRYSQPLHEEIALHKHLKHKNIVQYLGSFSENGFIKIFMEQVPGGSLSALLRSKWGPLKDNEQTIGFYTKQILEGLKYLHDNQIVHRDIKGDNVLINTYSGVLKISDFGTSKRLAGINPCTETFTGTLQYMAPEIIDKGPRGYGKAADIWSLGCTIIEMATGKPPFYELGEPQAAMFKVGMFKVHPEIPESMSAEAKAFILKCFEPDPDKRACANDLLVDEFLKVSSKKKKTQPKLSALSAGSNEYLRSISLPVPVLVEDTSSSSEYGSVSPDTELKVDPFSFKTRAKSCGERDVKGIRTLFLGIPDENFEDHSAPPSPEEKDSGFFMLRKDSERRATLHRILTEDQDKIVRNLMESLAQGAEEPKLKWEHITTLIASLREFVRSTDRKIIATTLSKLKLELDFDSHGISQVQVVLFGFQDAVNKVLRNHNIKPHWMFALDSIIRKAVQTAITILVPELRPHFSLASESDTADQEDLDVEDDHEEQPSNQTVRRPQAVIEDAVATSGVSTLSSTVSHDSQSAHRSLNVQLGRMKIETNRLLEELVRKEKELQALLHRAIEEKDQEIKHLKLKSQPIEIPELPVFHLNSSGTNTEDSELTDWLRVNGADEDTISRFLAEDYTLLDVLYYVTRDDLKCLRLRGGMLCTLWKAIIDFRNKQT

[5] = biological target: T3, Alpha-2A adrenergic receptor (Homo sapiens) (UniProt P08913); test: ALPHA2A/HU Cerep selectivity data (BI); conditions: Compound concentration 20.0 uM
T3 sequence (whole entry): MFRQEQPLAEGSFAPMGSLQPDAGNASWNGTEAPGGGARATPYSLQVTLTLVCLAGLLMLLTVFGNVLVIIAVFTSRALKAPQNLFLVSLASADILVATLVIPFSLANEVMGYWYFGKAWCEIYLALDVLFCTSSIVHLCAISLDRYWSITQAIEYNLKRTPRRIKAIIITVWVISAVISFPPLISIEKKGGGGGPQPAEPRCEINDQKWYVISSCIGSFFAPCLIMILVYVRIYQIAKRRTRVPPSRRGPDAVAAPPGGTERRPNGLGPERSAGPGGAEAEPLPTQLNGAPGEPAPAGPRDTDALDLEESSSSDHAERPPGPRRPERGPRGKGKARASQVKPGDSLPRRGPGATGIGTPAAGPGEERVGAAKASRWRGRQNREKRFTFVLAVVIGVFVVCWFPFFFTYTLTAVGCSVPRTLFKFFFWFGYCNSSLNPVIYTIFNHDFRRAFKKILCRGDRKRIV

[6] = biological target: Misshapen-like kinase 1 (Homo sapiens) (UniProt Q8N4C8); test: MINK1 Invitrogen selectivity data (BI); conditions: Compound concentration 3.0 uM
Chain of Misshapen-like kinase 1 (Homo sapiens) (Q8N4C8 whole entry, looked up): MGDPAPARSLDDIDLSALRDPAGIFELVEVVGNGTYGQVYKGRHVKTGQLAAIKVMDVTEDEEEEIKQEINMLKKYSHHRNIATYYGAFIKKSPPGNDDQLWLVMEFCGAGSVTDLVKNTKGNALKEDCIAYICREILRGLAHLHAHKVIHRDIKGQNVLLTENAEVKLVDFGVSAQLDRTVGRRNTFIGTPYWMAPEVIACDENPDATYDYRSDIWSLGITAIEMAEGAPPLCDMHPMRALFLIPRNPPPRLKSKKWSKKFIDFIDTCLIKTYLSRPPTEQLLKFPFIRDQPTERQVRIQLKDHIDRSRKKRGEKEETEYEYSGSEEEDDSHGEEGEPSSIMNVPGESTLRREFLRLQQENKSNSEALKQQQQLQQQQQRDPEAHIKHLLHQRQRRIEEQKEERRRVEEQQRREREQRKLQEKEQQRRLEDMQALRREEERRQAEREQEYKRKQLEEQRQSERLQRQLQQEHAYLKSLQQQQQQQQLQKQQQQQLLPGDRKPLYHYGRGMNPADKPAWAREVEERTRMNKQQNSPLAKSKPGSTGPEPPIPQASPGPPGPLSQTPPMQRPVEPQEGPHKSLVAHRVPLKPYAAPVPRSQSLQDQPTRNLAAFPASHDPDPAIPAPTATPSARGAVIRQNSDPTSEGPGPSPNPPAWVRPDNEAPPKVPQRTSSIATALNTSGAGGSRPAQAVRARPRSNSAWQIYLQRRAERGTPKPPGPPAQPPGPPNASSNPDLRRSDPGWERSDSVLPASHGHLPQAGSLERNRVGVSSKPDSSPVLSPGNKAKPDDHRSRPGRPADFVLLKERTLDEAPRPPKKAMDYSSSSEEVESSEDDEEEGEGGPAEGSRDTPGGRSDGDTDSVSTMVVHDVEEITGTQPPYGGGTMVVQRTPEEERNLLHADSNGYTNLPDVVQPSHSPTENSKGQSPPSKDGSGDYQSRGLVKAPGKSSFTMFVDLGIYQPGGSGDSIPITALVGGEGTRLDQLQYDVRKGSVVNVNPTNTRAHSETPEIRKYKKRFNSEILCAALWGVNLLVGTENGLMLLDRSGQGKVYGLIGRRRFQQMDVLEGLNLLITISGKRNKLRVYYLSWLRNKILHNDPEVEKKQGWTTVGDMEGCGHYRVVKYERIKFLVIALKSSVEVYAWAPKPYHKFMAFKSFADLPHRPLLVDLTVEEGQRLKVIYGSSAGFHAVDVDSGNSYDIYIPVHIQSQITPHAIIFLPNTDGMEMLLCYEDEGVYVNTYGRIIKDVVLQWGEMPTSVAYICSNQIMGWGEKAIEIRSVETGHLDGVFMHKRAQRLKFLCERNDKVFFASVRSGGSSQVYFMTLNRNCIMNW

[7] = biological target: Beta-1 adrenergic receptor (Homo sapiens) (UniProt P08588); test: BETA1/HUM Cerep selectivity data (BI); conditions: Compound concentration 20.0 uM
Chain of Beta-1 adrenergic receptor (Homo sapiens) (P08588 whole entry, looked up): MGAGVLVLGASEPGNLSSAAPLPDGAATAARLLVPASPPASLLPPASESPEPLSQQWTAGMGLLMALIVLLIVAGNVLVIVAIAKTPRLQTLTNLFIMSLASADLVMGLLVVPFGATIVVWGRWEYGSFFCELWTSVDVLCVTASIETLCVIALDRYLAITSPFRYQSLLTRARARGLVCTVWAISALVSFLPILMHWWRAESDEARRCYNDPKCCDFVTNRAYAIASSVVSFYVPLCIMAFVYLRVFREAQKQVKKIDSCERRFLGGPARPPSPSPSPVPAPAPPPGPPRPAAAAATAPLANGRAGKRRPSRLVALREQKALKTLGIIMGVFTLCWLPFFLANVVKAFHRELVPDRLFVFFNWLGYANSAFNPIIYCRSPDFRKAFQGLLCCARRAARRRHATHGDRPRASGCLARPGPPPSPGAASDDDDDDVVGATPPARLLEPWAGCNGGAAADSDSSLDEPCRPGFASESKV

[8] = biological target: Matrix metalloproteinase-9 (Homo sapiens) (UniProt P14780); test: MMP-9 (H) Cerep selectivity data (BI); conditions: Compound concentration 20.0 uM
Chain of Matrix metalloproteinase-9 (Homo sapiens) (P14780 whole entry): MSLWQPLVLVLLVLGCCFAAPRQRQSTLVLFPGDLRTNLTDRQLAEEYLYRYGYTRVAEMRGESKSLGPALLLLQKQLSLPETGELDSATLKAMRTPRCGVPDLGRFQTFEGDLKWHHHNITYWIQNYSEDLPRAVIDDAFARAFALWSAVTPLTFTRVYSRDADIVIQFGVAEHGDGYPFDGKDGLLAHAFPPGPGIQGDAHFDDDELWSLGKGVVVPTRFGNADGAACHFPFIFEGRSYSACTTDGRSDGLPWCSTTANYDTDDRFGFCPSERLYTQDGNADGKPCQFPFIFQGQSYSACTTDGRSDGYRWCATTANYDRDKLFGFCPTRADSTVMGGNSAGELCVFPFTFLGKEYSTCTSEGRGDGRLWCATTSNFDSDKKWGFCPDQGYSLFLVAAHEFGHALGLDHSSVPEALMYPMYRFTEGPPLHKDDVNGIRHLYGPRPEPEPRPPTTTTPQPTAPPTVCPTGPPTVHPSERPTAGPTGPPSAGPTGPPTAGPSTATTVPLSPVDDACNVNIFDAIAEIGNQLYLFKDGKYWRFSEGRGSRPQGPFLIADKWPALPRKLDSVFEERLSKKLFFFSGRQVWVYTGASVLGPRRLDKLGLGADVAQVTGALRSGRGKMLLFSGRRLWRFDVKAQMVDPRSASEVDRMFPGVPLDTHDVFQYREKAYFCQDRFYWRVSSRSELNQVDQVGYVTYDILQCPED

[9] = biological target: 5-hydroxytryptamine receptor 1B (Homo sapiens) (UniProt P28222); conditions: Compound concentration 10.0 uM
Chain of 5-hydroxytryptamine receptor 1B (Homo sapiens) (P28222 whole entry): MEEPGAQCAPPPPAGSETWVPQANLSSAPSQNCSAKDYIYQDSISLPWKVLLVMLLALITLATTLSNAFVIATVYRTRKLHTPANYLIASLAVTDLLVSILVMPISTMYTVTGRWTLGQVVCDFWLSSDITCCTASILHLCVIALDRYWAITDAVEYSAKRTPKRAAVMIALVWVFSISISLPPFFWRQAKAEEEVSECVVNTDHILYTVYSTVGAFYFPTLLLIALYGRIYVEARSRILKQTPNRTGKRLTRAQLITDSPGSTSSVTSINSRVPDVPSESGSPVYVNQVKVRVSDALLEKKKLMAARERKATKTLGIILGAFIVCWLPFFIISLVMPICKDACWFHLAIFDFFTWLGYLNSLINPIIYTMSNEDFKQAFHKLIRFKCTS

[10] = biological target: Focal adhesion kinase 1 (Homo sapiens) (UniProt Q05397); test: PTK2 Invitrogen selectivity data (BI); conditions: Compound concentration 3.0 uM
Chain of Focal adhesion kinase 1 (Homo sapiens) (Q05397 2-1052 limits assumed): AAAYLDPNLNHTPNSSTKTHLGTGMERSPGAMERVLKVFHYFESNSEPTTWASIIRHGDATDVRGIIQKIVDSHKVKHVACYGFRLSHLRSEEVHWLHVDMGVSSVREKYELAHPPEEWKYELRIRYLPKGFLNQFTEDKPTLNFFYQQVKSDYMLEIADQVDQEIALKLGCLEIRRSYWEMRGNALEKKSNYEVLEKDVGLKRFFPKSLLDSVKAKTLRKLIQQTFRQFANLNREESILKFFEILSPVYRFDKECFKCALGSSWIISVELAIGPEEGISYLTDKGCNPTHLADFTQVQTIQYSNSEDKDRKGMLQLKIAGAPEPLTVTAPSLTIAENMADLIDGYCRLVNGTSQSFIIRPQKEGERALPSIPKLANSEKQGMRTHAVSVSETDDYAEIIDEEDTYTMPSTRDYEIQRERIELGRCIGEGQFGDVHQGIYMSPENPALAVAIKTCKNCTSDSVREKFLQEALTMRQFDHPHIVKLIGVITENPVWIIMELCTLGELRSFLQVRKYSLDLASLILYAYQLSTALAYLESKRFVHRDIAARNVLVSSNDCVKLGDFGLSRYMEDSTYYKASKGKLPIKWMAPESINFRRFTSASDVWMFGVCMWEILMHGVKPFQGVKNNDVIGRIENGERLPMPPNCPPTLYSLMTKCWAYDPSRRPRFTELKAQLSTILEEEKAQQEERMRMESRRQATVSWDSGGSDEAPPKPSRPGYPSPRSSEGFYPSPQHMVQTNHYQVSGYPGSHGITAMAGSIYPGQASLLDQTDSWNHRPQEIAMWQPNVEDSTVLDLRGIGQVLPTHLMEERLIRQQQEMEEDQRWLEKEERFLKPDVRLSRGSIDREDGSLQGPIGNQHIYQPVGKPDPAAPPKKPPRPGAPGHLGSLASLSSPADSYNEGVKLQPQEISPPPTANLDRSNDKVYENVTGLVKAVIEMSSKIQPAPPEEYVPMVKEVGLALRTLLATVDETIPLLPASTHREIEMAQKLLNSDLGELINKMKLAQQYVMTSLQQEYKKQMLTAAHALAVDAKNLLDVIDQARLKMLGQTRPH

[11] = biological target: T3, Alpha-2A adrenergic receptor (Homo sapiens); test: ALPHA2A/H Eurofins-Panlabs selectivity data (BI); conditions: Compound concentration 10.0 uM

Chain of 5-hydroxytryptamine receptor 6 (Homo sapiens) (P50406 whole entry): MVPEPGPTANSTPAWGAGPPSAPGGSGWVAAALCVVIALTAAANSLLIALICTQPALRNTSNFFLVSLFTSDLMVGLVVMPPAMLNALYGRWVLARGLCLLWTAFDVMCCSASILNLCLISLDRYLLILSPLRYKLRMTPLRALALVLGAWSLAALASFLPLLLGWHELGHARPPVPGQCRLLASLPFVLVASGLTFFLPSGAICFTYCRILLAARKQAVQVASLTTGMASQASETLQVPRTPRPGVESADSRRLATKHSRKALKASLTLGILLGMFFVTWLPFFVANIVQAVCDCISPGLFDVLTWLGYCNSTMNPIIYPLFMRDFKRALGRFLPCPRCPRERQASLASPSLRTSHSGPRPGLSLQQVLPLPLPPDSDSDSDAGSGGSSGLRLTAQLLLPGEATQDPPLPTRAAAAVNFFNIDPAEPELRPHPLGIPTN
Chain of Atypical kinase COQ8B, mitochondrial (Homo sapiens) (Q96D53 whole entry): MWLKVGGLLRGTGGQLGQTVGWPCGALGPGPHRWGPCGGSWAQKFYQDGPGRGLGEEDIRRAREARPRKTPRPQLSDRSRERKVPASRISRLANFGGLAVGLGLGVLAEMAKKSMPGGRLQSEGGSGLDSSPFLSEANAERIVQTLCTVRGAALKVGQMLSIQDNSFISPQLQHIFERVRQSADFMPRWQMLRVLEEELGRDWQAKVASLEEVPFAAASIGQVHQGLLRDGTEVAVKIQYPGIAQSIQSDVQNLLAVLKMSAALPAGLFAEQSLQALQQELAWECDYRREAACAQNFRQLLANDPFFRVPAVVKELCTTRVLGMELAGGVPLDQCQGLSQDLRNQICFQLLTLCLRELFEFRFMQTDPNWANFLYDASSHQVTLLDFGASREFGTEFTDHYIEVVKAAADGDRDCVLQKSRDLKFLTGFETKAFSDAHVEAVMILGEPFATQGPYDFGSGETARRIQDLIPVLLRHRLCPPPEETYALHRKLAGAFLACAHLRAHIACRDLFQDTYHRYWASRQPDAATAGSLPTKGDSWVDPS

CN(C)C(=O)Cn1cc(-c2nc(C3(c4ccc(-c5cnc(N)nc5)cc4)CC3)no2)cn1 [BI 0153]
inactive: inhibition [1] -7.48% | residual activity [2] 100%

CN(C)C(=O)Cn1cc(-c2nc([C@@](C)(c3ccc(-c4cnc(N)nc4)cc3)C3CC3)no2)cn1 [BI 665915]
inactive: residual activity [3] 104% | residual activity [4] 99% | residual activity [5] 101% | residual activity [6] 93% | residual activity [7] 100% | residual activity [8] 83% | inhibition [9] -3.77% | residual activity [10] 87.5% | residual activity [11] 105%
